Columns and labels:
[1] = molecular target: T1, HlyU (Vibrio vulnificus, UniProt A0A3Q0L222); experiment: Vibrio reporter strain, pKK1305 (PrtxA-lux, activated by HlyU) in wild-type V. vulnificus; assay type: cell-based; settings: Compound Group I; HlyU activity (RLU, DMSO = 100%), 30° C.
T1 sequence (A0A3Q0L222 1-98): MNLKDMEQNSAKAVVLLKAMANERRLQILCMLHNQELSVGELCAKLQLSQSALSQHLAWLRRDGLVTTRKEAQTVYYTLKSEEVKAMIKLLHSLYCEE
Description: Meanwhile, verification experiments using the Vibrio reporter strain were also conducted so as to exclude false positive results. It was identified that the effect of the compound was not limited only to E. coli using Vibrio vulnificus, each having the reporter plasmid (pZW1608) inhibited by HlyU, which was used for the E. coli reporter strain, and the plasmid (pKK1305) in which the promoter of the rtxA gene activated by HlyU is cloned in front of the bioluminescence operon.
The constructed wild-type Vibrio reporter strain was treated with sample compounds and cultured at 30° C., and cell growth and luminescence were measured in the same manner as the E. coli strain screening (FIG. 3 and FIG. 4).
In order to identify whether or not a specific structure of CM2660 has a significant effect on HlyU inhibition, the effect of HlyU inhibition by the compound CM2660 and derivatives thereof, “Compound Group I” (FIG. 5) was verified. For the purpose, the pKK1305 plasmid prepared in Example 1 was conjugated to the wild-type Vibrio vulnificus, and the Vibrio reporter strain (pKK1305 in wild-type V. vulnificus) thus produced was treated with various concentrations of the derivative compounds.
(§1) While culturing at 30° C., the growth of the reporter strain and the degree of bioluminescence thereof were measured in the same manner as in Example 1, and the RLU was calculated. The RLU of the DMSO-treated control group was expressed as 100% HlyU activity. HlyU activity was plotted according to the concentration of the derivative compound, and EC50 (half maximal effective concentration) was calculated using GraphPad Prism 7.0 (GraphPad Software, San Diego, Calif.) (FIG. 6, Table 2).

[2] = tested on: rtxA, vvhA and plpA; experiment: qRT-PCR of virulence genes activated by HlyU in Vibrio vulnificus; assay type: cell-based; settings: 20 μM
Description: The effect of CM2660 on the expression of rtxA, vvhA and plpA, the virulence genes of Vibrio vulnificus activated by HlyU, was investigated. […] Then, the culture solution were sampled at the time at which the expression of each gene was mainly controlled by HlyU (A600=0.5 for rtxA and vvhA, and A600=1.0 for plpA), RNA was purified, and quantitative real-time polymerase chain reaction (quantitative Real-Time (qRT)-PCR) was performed (FIGS. 10 to 12).

[3] = tested on: Vibrio vulnificus; experiment: Cytotoxicity of Vibrio vulnificus to INT-407 cells (LDH activity); assay type: cell-based; settings: MOI 10, 2.5 hours, various concentrations
Description: Vibrio vulnificus cultured to A600=0.5 at 30° C. was treated with various concentrations of CM2660 or DMSO (control group) and infected into INT-407 cells prepared in 96-well assay plates at multiplicity of infection (MOI) of 10 for 2.5 hours. Then, the 96-well assay plates were centrifuged to separate INT-407 cells, and the supernatant and the lactate dehydrogenase (LDH) activity in the supernatant was measured to determine the occurrence of virulence (FIG. 13).

[4] = molecular target: T1, HlyU; experiment: Electrophoretic mobility shift assay (EMSA), HlyU binding to rtxA promoter DNA
Description: In order to investigate the effect of CM2660 on the DNA-binding capability of the HlyU protein, electrophoretic mobility shift assay (EMSA) experiments were performed using DNA at the known HlyU-binding rtxA promoter site.
The promoter site of the rtxA gene was amplified by PCR using ^32P-labeled primer, PrtxA-R (5′-[…]-3′) and unlabeled primer PrtxA-F (5′-[…]-3′). This DNA probe was reacted with 50 nM or 100 nM HlyU, 100 μM CM2660 or DMSO in reaction buffer (10 mM Tris-Cl, 50 mM KCl, 5 mM MgCl2, 0.75 mM DTT and 5% glycerol, 0.1 μg poly(dl-dC)) at 25° C. for 30 minutes.
The DNA-HlyU complex was electrophoresed on a polyacrylamide gel and phosphoimaged through Typhoon FLA7000 to determine the band position (FIG. 15, FIG. 16).

[5] = molecular target: T1, HlyU; experiment: Mass spectrometry / X-ray crystallography of HlyU protein treated with CM2660; assay type: binding
Description: In order to more accurately identify the HlyU inhibition mechanism of CM2660, the crystal structure of CM2660-treated HlyU protein was detected by X-ray crystallography and compared with that of the HlyU protein not treated with CM2660 (FIG. 17, FIG. 18).
In order to identify this in more detail, samples of HlyU protein treated with CM2660 were analyzed using mass spectrometry.

[6] = tested on: Vibrio vulnificus; experiment: Growth of Vibrio vulnificus; assay type: cell-based; settings: 20-500 μM CM2660
Description: as §1
Therefore, Vibrio vulnificus was treated with various concentrations of CM2660, and the growth of Vibrio vulnificus was observed (FIG. 20).

[7] = tested on: exsA, vp1668, vopQ, vopS and vopR; experiment: qRT-PCR of exsA and T3SS-1 genes in Vibrio parahaemolyticus; assay type: cell-based; settings: 20 μM, DMEM, vs 2% DMSO
Description: In V. parahaemolyticus, HlyU is known to activate the gene expression of the master transcriptional regulator, exsA of type III secretion system-1 (T3SS-1), which causes cytotoxicity. In order to determine whether or not CM2660 reduces the expression of the exsA gene by inhibiting HlyU of V. parahaemolyticus, virulence gene expression of V. parahaemolyticus was investigated using the same method as in (2) of Experimental Example 1.
In order to induce the T3SS-1 gene expression of Vibrio parahaemolyticus, Vibrio parahaemolyticus was cultured in Dulbecco's Modified Eagle Medium (DMEM) medium.
Meanwhile, since ExsA activates the expression of the T3SS-1 gene of Vibrio parahaemolyticus, T3SS-1 gene expression was detected using the same sample to determine whether or not the expression of exsA leads to a decrease in T3SS-1 gene expression (FIG. 24).

[8] = tested on: Vibrio alginolyticus; experiment: Cytotoxicity of Vibrio alginolyticus; assay type: cell-based; settings: CM2660 at different concentrations
[9] = tested on: hlyA and tlh; experiment: qRT-PCR of hemolytic protein genes in Vibrio cholerae; settings: 20 μM, A600=0.5, vs 2% DMSO
[10] = tested on: Vibrio cholerae; experiment: Hemolytic activity of Vibrio cholerae supernatant on horse blood agar; settings: 20 μM, 37° C., 24 hours
Description: Vibrio cholerae supernatant when treated with DMSO was dotted in horse blood agar medium and cultured at 37° C. for 24 hours.

## O=C(C#Cc1ccccc1)Nc1scc2c1c(=O)oc1ccccc12 [CM2660, N-(4-oxo-4H-thieno[3,4-c]chromen-3-yl)-3-phenylprop-2-ynamide]
[1]
  EC50: 30.9 µM
[2]; A600=0.5, vs 2% DMSO
  rtxA mRNA level: significantly reduced
  vvhA mRNA level: significantly reduced
[2]; A600=1.0, vs 2% DMSO
  plpA mRNA level: significantly reduced
[3]
  virulence (cytotoxicity) occurrence of Vibrio vulnificus: concentration-dependent decrease
[4]; 100 μM compound, 50 nM or 100 nM HlyU, 25° C., 30 minutes
  DNA-binding capability of HlyU: significantly decreased
[4]; CM2660 at different concentrations
  DNA-binding capability of HlyU, concentration dependence: decrease became greater as the concentration of CM2660 increased
[5]
  covalent binding to cysteine residue at position 30 of HlyU: covalently bound
[6]
  in-vitro growth of Vibrio vulnificus: no significant effect
[7]
  exsA mRNA level: significantly decreased
  vopQ mRNA level: decreased significantly
  vopR mRNA level: decreased significantly
  vopS mRNA level: decreased significantly
  vp1668 mRNA level: decreased significantly
[8]
  cytotoxicity of Vibrio alginolyticus: reduced in a concentration-dependent manner
[9]
  hlyA mRNA level: significantly reduced
  tlh mRNA level: significantly reduced
[10]
  hemolytic activity of Vibrio cholerae (clear zone): reduced
